Patent publication US7923450B2, “Modulators for amyloid beta” (Hoffmann-La Roche Inc., priority 2008, dated 2011)

Tests used:
γ-secretase = experiment: Cellular γ-secretase assay (Aβ42 secretion); assay type: cell-based; settings: inhibition of Aβ42 secretion; human neuroglioma H4 cells overexpressing human APP; 22 hrs incubation; read-out: EC50 in vitro
Description: Cellular γ-Secretase Assay
Human neuroglioma H4 cells overexpressing human APP were plated at 30,000 cells/well/200 μl in 96-well plates in IMDM media containing 10% FCS, 0.2 mg/l Hygromycin B and incubated for 2 h at 37° C., 5% CO2 prior to adding test compounds.
Compounds for testing were dissolved in 100% Me2SO yielding in a 10 mM stock solution. Typically 12 μl of these solutions were further diluted in 1000 μl of IMDM media (w/o FCS,). Sub sequential 1:1 dilutions gave a ten point dose response curve. 100 μl of each dilution was added to the cells in 96-well plates. Appropriate controls using vehicle only and reference compound were applied to this assay. The final concentration of Me2SO was 0.4%.
After incubation for 22 hrs at 37° C., 5% CO2, 50 μl supernatant was transferred into round-bottom 96-well polypropylene plates for detection of Aβ42. 50 μl assay buffer (50 mM Tris/Cl, pH 7.4, 60 mM NaCl, 0.5% BSA, 1% TWEEN 20) was added to the wells followed by the addition of 100 μl of detection antibody (ruthenylated Aβ42-specific antibody BAP15 0.0625 μg/mL in assay buffer). 50 μl of a premix of capture antibody (biotinylated 6E10 antibody, 1 μg/mL) and Steptavidin-coated magnetic beads (Dynal M-280, 0.125 mg/mL) were preincubated for 1 hr at room temperature before adding the assay plates. Assay plates were incubated on a shaker for 3 hrs at room temperature and finally read in the Bioveris M8 Analyser according to the manufacturer's instructions (Bioveris).
EC50 values for inhibition of Aβ42 secretion were calculated by nonlinear regression fit analysis using XLfit 4.0 software (IDBS).

| SMILES | EC50 (γ-secretase) [nM] | melting point [°C] |
| --- | --- | --- |
| COc1cc(Nc2nc3c(s2)CCCC3(C)c2ccccc2)ccc1-n1cnc(C)c1 (centres unmarked) [Example 30, [3-Methoxy-4-(4-methyl-imidazol-1-yl)-phenyl]-(4-methyl-4-phenyl-4,5,6,7-tetrahydro-benzothiazol-2-yl)-amine] | 300 | 123 to 126 |
| Cc1cn(-c2ccc(Nc3nc4c(s3)CCCC4c3ccc(C)c(C(F)(F)F)c3)cc2F)cn1 (centres unmarked) [Example 32, [3-Fluoro-4-(4-methyl-imidazol-1-yl)-phenyl]-[4-(4-methyl-3-trifluoromethyl-phenyl)-4,5,6,7-tetrahydro-benzothiazol-2-yl]-amine] | 260 | 160 to 163 |
| Cc1cn(-c2ccc(Nc3nc4c(s3)CCCC4c3ccccc3Cl)cc2F)cn1 (centres unmarked) [Example 33, [4-(2-Chloro-phenyl)-4,5,6,7-tetrahydro-benzothiazol-2-yl]-[3-fluoro-4-(4-methyl-imidazol-1-yl)-phenyl]-amine] | 430 | 204 to 206 |
| COc1ccccc1C1CCCc2sc(Nc3ccc(-n4cnc(C)c4)c(F)c3)nc21 (centres unmarked) [Example 35, [3-Fluoro-4-(4-methyl-imidazol-1-yl)-phenyl]-[4-(2-methoxy-phenyl)-4,5,6,7-tetrahydro-benzothiazol-2-yl]-amine] | 340 | 227 to 230 |
| Cc1cn(-c2ccc(Nc3nc4c(s3)CCCC4c3ccc(Cl)cc3Cl)cc2F)cn1 (centres unmarked) [Example 36, [4-(2,4-Dichloro-phenyl)-4,5,6,7-tetrahydro-benzothiazol-2-yl]-[3-fluoro-4-(4-methyl-imidazol-1-yl)-phenyl]-amine] | 460 | 136 to 139 |
| COc1cc(Nc2ncc3c(n2)C(c2ccc(Cl)cc2)CCC3)ccc1-n1cnc(C)c1 (centres unmarked) [Example 50, [8-(4-Chloro-phenyl)-5,6,7,8-tetrahydro-quinazolin-2-yl]-[3-methoxy-4-(4-methyl-imidazol-1-yl)-phenyl]-amine] | 380 | 210 to 212 |
| Cc1cn(-c2ccc(Nc3ncc4c(n3)C(c3ccc(F)cc3)CCC4)cc2F)cn1 (centres unmarked) [Example 60, [3-Fluoro-4-(4-methyl-imidazol-1-yl)-phenyl]-[8-(4-fluoro-phenyl)-5,6,7,8-tetrahydro-quinazolin-2-yl]-amine] | 500 | 201 to 203 |
